Where two headings read alike, the source gives them in different places.
How the values were obtained:
[1] = system: male mice; details: mouse, in vivo, 1440 min
Experimental: 1. Determination of Minimum Toxic Dose
Male mice weighing 20 to 25 g are administered per os and i.p. maximum doses of 300 mg/kg of the test substances. The animals are carefully observed for three hours for toxic symptoms. During a period of 24 hours following the administration all symptoms and deaths are recorded. Side reactions are likewise observed and recorded. When death or strong toxic symptoms are observed, further mice are administered increasingly smaller doses. The lowest dose which produces death or strong toxic symptoms is given as the minimum toxic dose.

[2] = system: female Wistar rats; assay: CAR-test (conditioned avoidance response) in rats, antipsychotic properties; format: in vivo; details: po, 1 h, rat, per os, one hour prior to testing
Experimental: 2. Evaluation of antipsychotic properties in the CAR-test procedure in rats.
The CAR test is performed in a modification of the experimental set up described by Capaldi et al (see R. D. Myers (ed): Methods in Psychobiology, Academic Press, New York, pp. 71-74). Fully automated one-way shuttle boxes are used, which are divided into 2 compartments by a wall with a hole. The floor of the box is a grid of stainless steel through which electric stimuli can be delivered. The ceiling of the box is provided with a lamp and a loudspeaker giving a buzzertone. In order to avoid the electric stimulus in the first starting compartment the animals can cross over into the safe second compartment.
During the test procedure the animals are placed into the starting compartment and at the same time the light and the loudspeaker are switched on as a warning signal (=conditioned stimulus). If at this warning signal already the animals cross over into the safe compartment, this is considered a CAR and is automatically recorded. If the animals don't cross over into the safe compartment within 5 sec. an electric shock is delivered additionally through the floor grid (=unconditioned stimulus) for a period of up to 15 sec. If at the presentation of the electric shock the animals cross over into the safe compartment, this is considered an unconditioned escape response (=UER). As soon as the animals have crossed over into the safe compartment the stimuli are switched off automatically.
For the test female Wistar rats having a body weight of 140-210 g are used. They are trained in a 20 trial session on the day before and only such animals which show CAR exclusively are used for the drug experiments.
Groups of 4 animals are used for each dose of the test compounds, the animals are placed into the test situation 15 times each, and the average value of the last 10 trials is taken into account.
The test compounds are administered per os in a volume of 10 ml/kg of 2% tylose solution one hour prior to testing. To a control group tylose solution only is administered. The dose which reduces CAR by 50% and thus leads to a 50% avoidance block is determined (=ED50 AB). Furthermore the dosis which reduces UER by 50% and thus leads to a 50% escape block is determined (=ED50 EB).

[3] = system: female Wistar rats; assay: Behavioral changes of rats in punishment conflict situation (Skinner box), anxiolytic properties; format: in vivo, rat; details: po, 1 h
Experimental: 4. Evaluation of anxiolytic properties.
For evaluating the anxiolytic properties of the compounds a modified method according to Davidson et al (see The Benzodiazepines, Raven Press New York 1973 pp 327-345) is used, whereby the ability of the compounds to change the behavior of rats in a punishment conflict situation is examined.
In order to create the conflict situation the following experimental set up and procedure are used:
The tests are performed in Skinner boxes which are provided with an electrifyable grid-floor, a lever which has to be pressed by the rat, an automatic feeder and 2 different light sources. Female Wistar rats having a body weight of 180-300 g are used. Prior to testing the animals are trained to obtain food by pressing the lever, whereby 2 phases of different conditions alternate. The two phases are distinguished by different lightening. During one phase a food reward is given at a fixed ratio after each 10th lever press (=FR 10), yet simultaneous by with the food pellet an electric food shock punishment is delivered. During the other phase food reward is obtained without any electric punishment, yet lever pressing is rewarded with a food pellet far less frequently and at varying time intervals only (average interval 30 sec=VI30). During each […]. trial session […] alternate with 6 FP10 phases (120 sec. each).
For testing the compounds each animal is subjected to the 47 min. test procedure once a day on 4 consecutive days always at the same time. On days 1, 2 and 3 the animals are given per os 10 ml/kg of 2% tylose soluton 60 min. prior to test begin. On day 4 they are given a dose of the test compound in the tylose solution. For each animal the number of lever press responses in the punished FR10 phases and in the unpunished VI30 phases are recorded seperately for each day. For each animal the mean values from the results of the first three days are taken as control values. The results from the 4th day are compared with these control values. The lowest doses which produce significant changes in the number of lever presses are determined for the unpunished phase and for the punished phase as the minimum effective doses (=MEDup and MEpp). Increased activity during the punished phase is due to anxiolytic effects of the test compound. Reduced activity during the unpunished phase is an indication of sedative effects of the compound.

[4] = system: male NMRI-mice; assay: Inducement of head-shaking syndrome in mice by interaction with subthreshold dose of 5-HTP, antidepressive properties; format: in vivo; details: mouse, p.o.; pargyline 25 mg/kg i.p. pretreatment, 50 mg/kg 5-HTP i.p.; 60 min
Experimental: 3. Evaluation of antidepressive properties.
This effect is typical of antidepressives. For this a modified method according to Corne et al (see Br.J.Pharmacol. 20, pp 106-120) is used to determine the ability of the compounds to induce a head-shaking syndrome in mice in interaction with a subthreshold dose of 5-HTP.
Male NMRI-mice having a body weight of 20-30 g are used. 60 min. prior to administration of the test compounds the animals are given an i.p. injection of 25 mg/kg of the MAO-inhibitor pargyline dissolved in a volume of 10 ml/kg of 2% tylose solution. Groups of 20 animals are used for each dose of the test compounds. The test compounds are administered per os in a volume of 10 ml/kg of 2% tylose solution. After 30 min. 50 mg/kg 5-HTP in a volume of 10 ml/kg of 2% tylose solution are injected i.p. and each animal is placed in a case individually. A group of control animals receives only the pargyline injection, the 5-HTP injection and 2% tylose solution p.o.
60 min. after administration of the test compounds (=30 min. after 5-HTP injection) the animals are observed for 120 sec. in order to check, whether or not the head-shaking-syndrome occurs.
The ED50 is defined as the dose at which the number of animals showing a head-shake-syndrome is increased by 50% as compared with the control group.

[5] = read-out: ED50 AB (dose leading to 50% avoidance block)
[6] = read-out: ED50 EB (dose leading to 50% escape block)
[7] = rat, p.o., punished FR10 phase, 60 min. prior to test, read-out: MEDPP (minimum effective dose, punished phase)
[8] = rat, p.o., unpunished VI30 phase, 60 min. prior to test, read-out: MEDUP (minimum effective dose, unpunished phase)

Row | Compound | Minimum Toxic Dose ([1]; ip) [mg/kg] | Minimum Toxic Dose ([1]; po) [mg/kg] | ED50 [2, 5] [µmol/kg] | ED50 [2, 6] [µmol/kg] | minimal effective dose [3, 7] [µmol/kg] | minimal effective dose [3, 8] [µmol/kg] | ED50, inducement of head-shaking-syndrome by interaction with 5-HTP [4] [µmol/kg] | minimal effective dose ([3]; Rattus norvegicus, read-out: MEDPP (minimum effective dose, punished phase)) [µmol/kg] | minimal effective dose ([3]; Rattus norvegicus, read-out: MEDUP (minimum effective dose, unpunished phase)) [µmol/kg]
1 | CCCCN1C(=O)C2C(=O)N(CCCCN3CCN(c4ccccc4OCC)CC3)C(=O)C(C1=O)C2(C)C [Compound 3110] | > 300 | > 300 | 50 | 200 | 6.8 | > 215 | – | – | –
2 | CCCCCCN1C(=O)C2C(=O)N(CCCCCN3CCN(c4cccc(C)c4)CC3)C(=O)C(C1=O)C2(C)C [Compound 3143] | > 300 | > 300 | – | – | – | – | 130 | – | –
3 | CCCCN1C(=O)C2C(=O)N(CCCCN3CCN(c4ccc(F)cc4)CC3)C(=O)C(C1=O)C2(C)C [Compound 3135] | > 300 | > 300 | – | – | – | – | 72 | – | –
4 | CCCCCCN1C(=O)C2C(=O)N(CCCCCN3CCN(c4ccccc4OC)CC3)C(=O)C(C1=O)C2(C)C [Compound 3142] | – | – | – | – | – | – | 74 | – | –
5 | CN1C(=O)CN=C(c2ccccc2)c2cc(Cl)ccc21 [Diazepam, reference compound] | – | – | – | – | – | – | – | 31.6 | 46.4
6 | CCCCN1C(=O)C2C(=O)N(CCCCN3CCN(c4ccccc4OC)CC3)C(=O)C(C1=O)C2(C)C [Compound 3107] | 200 | > 300 | 27 | 70 | 14.7 | 147 | – | – | –
7 | CCCCN1C(=O)C2C(=O)N(CCCCN3CCN(c4ncccn4)CC3)C(=O)C(C1=O)C2(C)C [Compound 3304] | – | – | – | – | 21.5 | > 215 | – | – | –

Source: US4771044A, “Tetraoxo compounds and pharmaceutical compositions” (Kali-Chemie Pharma GmbH, priority 1985, dated 1988)
